Data from paper PMC9313812, “The Pseudo‐Natural Product Rhonin Targets RHOGDI” (Angewandte Chemie (International Ed. in English), 2022).
Entries after “also recorded” stand apart in the source; their conditions may differ. Where two headings read alike, the source gives them in different places.

Key:
[1] = molecular target: T1, RHOGDI1-mediated extraction of RAC1 (Homo sapiens, UniProt P52565); experiment: Liposome sedimentation assay: displacement of prenylated GDP-bound RAC1 from liposomes by GST-RHOGDI1; assay type: biochemical; conditions: 50 μM compound
T1 construct: made in house; host or cells: RHOGDI1: E. coli; prenylated RAC1: insect cells (TNAO38)
T1 sequence (P52565 1-204): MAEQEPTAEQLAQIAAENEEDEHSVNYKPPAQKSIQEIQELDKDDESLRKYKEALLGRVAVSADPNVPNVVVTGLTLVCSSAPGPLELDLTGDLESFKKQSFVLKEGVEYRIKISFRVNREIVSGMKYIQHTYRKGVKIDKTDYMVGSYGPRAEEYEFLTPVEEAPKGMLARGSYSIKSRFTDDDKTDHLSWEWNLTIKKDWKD
Protocol: Liposome sedimentation assay
Liposomes were prepared by self-assembly of the lipids (500 μg) containing 20% (w/w) phosphatidylethanolamine, 45% (w/w) phosphatidylcholine, 20% (w/w) phosphatidylserine, 10% (w/w) cholesterol, and 5% (w/w) phosphatidylinositol 4,5-bisphosphate. Liposome assays were performed by mixing, sonicating (20 s with minimal power, 50% off and 50% on) and extruding ([…] filter) the lipids in 300 µl of a buffer, containing 20 mM HEPES-NaOH pH 7.4, 50 mM NaCl, 3 mM DTT, 5 mM MgCl2. 1 µM GerGer-RAC1-GDP was added to the liposomes and incubated for 20 min on ice. 1.5 µM GST‐RHOGDI-1 and the compounds or DMSO were added to the liposome-GerGer-RAC1-GDP complex prior to incubation on ice for 30 min. The samples were centrifuged at 20,000 x g for 30 min at 4 °C. The resulting pellet and supernatant fractions were collected and analyzed by immunoblotting. 10 µl of each sample were loaded on a SDS-PAGE gel for Western blotting. Specific antibodies were used to visualize RAC1, CDC42 and RHOA.
10 µM of GerGer-RAC1-GDP was added to liposomes suspended in flotation assay buffer containing 20 mM HEPES-NaOH pH 7.4, 50 mM M NaCl, 3 mM DTT, 5 mM MgCl2, and incubated for 20 min on ice. The liposomes were prepared by using self-assembling the lipids (500 μg lipids in 300 µl buffer), containing 15% (w/w) phosphatidylethanolamine, 0.5% (w/w) NBD-PE (N-(7-nitrobenz-2-oxa-1,3-diazol-4-yl)-1,2-dihexadecanoyl-sn-glycero-3-phosphoethanolamine, triethylammonium salt), 45% (w/w) phosphatidylcholine, 20% (w/w) phosphatidylserine, 10% (w/w)cholesterol, and 5% (w/w) phosphatidylinositol 4,5-bisphosphate. 15 µM of GST‐RHOGDI-1 and compounds or DMSO was added to liposome-GerGer-RAC1-GDP complex and samples were further incubated on ice for 30 min. The samples were added to 30% (w/v) sucrose solution. […]
The resulting samples were centrifuged at 140000 x g for 1 h at 4 °C. The upper liposome‐ containing phase (detected by fluorescent NDB‐PE) was collected and analyzed by […]

C3H/10T1/2 cells = experiment: Osteoblast differentiation assay (ODA): purmorphamine-induced osteogenesis, alkaline phosphatase luminescence readout; assay type: cell-based, mouse; design: key to Osteogenesis IC50: Compounds are marked inactive when no inhibition was observed at the highest test concentration of 30 µM; conditions: for Inhibition of Hh-/purmorphamine-induced osteogenesis (in words): C3H/10T1/2 cells; for IC50: Mus musculus, C3H 10T1/2
Protocol: Supplementary Table S7. Inhibition of osteogenesis assay. C3H10T1/2 cells were incubated with 1.5 µM purmorphamine and compounds or DMSO as a control for 96 h. The activity of alkaline phosphatase was assessed by means of a luminescence readout. Values for cells, which were treated with DMSO and purmorphamine, were set to 100% and data were measured in […]
concentration of 30 µM. All data are mean values of three independent experiments (n = 3) ± […]
Compound Osteogenesis IC50
(1 picture or pasted object on this page, not shown here)
NIH/3T3 cells were obtained from DSMZ, Germany (DSMZ ACC 59) and were cultured in DMEM (high glucose) supplemented with 10% heat-inactivated FCS, 2 mM L -glutamine and 1 mM sodium pyruvate. Shh -LIGHT2 cells (NIH/3T3 cells stably transfected with a Gli-responsive firefly luciferase reporter plasmid and a pRL-TK constituitive Renilla luciferase expression vector)[4] were cultured in the same culturing medium supplemented with 400 μg ml −1 G418 and 150 μg ml −1 Zeocin as selecting agents. The murine osteoblasts C3H/10T1/2 (ATCC CCL-226) were obtained from ATCC, USA and were cultured in DMEM (high glucose) supplemented with 10% heat-inactivated FCS, 6 mM L -glutamine, 1 mM sodium pyruvate. HEK293T cells (ATCC, England) were grown in DMEM containing 10% FBS, 100 U ml −1 penicillin and 0.1 mg ml −1 streptomycin. All cell lines were maintained at 37 °C and 5% CO 2 in a humidified atmosphere. All the cell lines were regularly assayed for mycoplasma and were confirmed to be mycoplasma-free. Transfection of DNA constructs and siRNAs were performed using FuGENE HD (Promega), Lipofectamine® LTX (Invitrogen) and DharmaFECT™ (GE Healthcare) transfection reagent according to the manufacturer’s […]
Osteoblast differentiation assay
The osteoblast differentiation assay was performed by the Compound Management and Screening Center (COMAS) in Dortmund, Germany. C3H/10T1/2 cells were seeded (800 per well) in white 384-well plates or (6000 per well) in 96-well plates. After incubation for 16 h, compounds or DMSO were added to the cells using the acoustic nanoliter dispenser ECHO 520 (Labcyte) and osteogenesis was induced with 1.5 µM purmorphamine. Plates were incubated for 96 h at 37 °C and 5% CO2. Alkaline phosphatase activity was measured by replacing the medium with osteogenesis-lysis buffer (lysis buffer: 100 mM Tris pH 9.5, 250 mM NaCl, 25 mM MgCl2, 1% Triton X-100, sterile filtered) containing 1:100 chemiluminescent substrate CDP-Star® (Promega, 384-well plates: 35 µL, 96-well plates: 50 µL) for one hour in the dark at 25 °C. In 384-well plates, the luminescence was monitored using the Paradigm plate reader (Molecular Devices, USA), whereas Spark plate reader (Tecan, Austria) was used to measure luminescence in 96-well plates. Dose-response analyses were performed for all hit compounds […]
using a three-fold dilution series starting from a concentration of 30 μM. Half-maximal inhibitory concentrations (IC50) were calculated using the Quattro software suite (Quattro Research, Planegg, Germany) or GraphPad Prism 7 (GraphPad, USA).
The effect of test compounds on the viability of C3H/10T1/2 cells was determined by CellTiter-Glo Luminescence cell viability assay (Promega). Cells were treated as described for the osteogenesis assay prior to addition of the CellTiter-Glo® reagent according to manufacturer’s protocol. Compounds causing at least a 50% reduction in the osteogenesis assay and retaining cell viability of at least 80% were considered as hits. Dose-response analyses were performed for all hit compounds using a three-fold dilution series starting from a concentration of 30 μM. Half-maximal inhibitory concentrations (IC50) were calculated using the Quattro software suite (Quattro Research GmbH). […]

[2] = Table S9, purmorphamine-induced, mean, n=3 ± SD, read-out: ODA IC50 ± SD

Row | Compound | Inhibition of RHOGDI1-mediated extraction of RAC1 from liposomes (in words) [1] | Inhibition of Hh-/purmorphamine-induced osteogenesis (in words) (C3H/10T1/2 cells) | IC50 (C3H/10T1/2 cells; [2]) | Osteogenesis IC50 (C3H/10T1/2 cells; Table S7, 1.5 µM purmorphamine, 96 h, mean ± SD, n=3, highest test concentration 30 µM) | IC50 (C3H/10T1/2 cells; Table S7, 1.5 µM purmorphamine, 96 h, mean ± SD, n=3, highest test concentration 30 µM, read-out: Osteogenesis IC50)
1 | COC(=O)C1(C(CC(=O)c2cccnc2)c2ccccc2)N=C(c2ccc(Br)cc2)C2C(=O)N(C)C(=O)C21 (stereo not drawn) [7l] | inhibited | most potently inhibited | 1520 ± 220 nM | – | –
2 | COC(=O)C1(CCC(=O)c2ccc(F)cc2)N=C(c2ccc(Br)cc2)C2C(=O)N(C)C(=O)C21 (stereo not drawn) [7d] | did not inhibit extraction of RAC1 | abolished activity; also recorded: did not inhibit osteogenesis | – | inactive | –
3 | COC(=O)C1(C(CC(=O)c2ccccc2)c2ccccc2)N=C(c2ccc(Br)cc2)C2C(=O)N(C)C(=O)C21 (stereo not drawn) [7a] | inhibits the extraction of RAC1 | – | 1300 ± 300 nM | – | 1500 ± 200 nM
